Experiments:
[1] = tested on: ceftazidime‐resistant Enterobacteriaceae; settings: cited from earlier work
[2] = tested on: ceftazidime‐resistant P. aeruginosa; settings: thigh and lung infection; cited from earlier work
[3] = tested on: organic anion transporter 1 (OAT1); settings: in vitro; cited from earlier work
[4] = tested on: OAT3; settings: in vitro; cited from earlier work
[5] = Individual predicted steady‐state exposures; type: in vivo, human; settings: for AUC / Cmax: human, plasma; for AUC: AUCss,0–24 geometric mean (CV)
[6] = Final avibactam PopPK model; type: in vivo, human; settings: for clearance: human, plasma, intravenous
[7] = taken to be; ref not given; cited from earlier work
[8] = non‐Chinese, non‐Japanese Asians vs other racial origins

NC(=O)[C@@H]1CC[C@@H]2CN1C(=O)N2OS(=O)(=O)O [Avibactam, avibactam]
C T that restored the activity of ceftazidime ([1]; avibactam concentration fixed, varying concentrations of ceftazidime): ≤ 0.5 mg/L
C T sufficient to restore ceftazidime activity ([1]; fixed concentrations of ceftazidime, varying concentrations of avibactam): 0.15 to 0.28 mg/L
%fT > 1 mg/L associated with 2log10 reductions in bacterial density [2]: 20–55%
%fT > 1 mg/L associated with stasis [2]: 16–24%
transporter substrate [3]: substrate
transporter substrate [4]: substrate
AUC ([5]; Age (years) 18–65): 131 µg·h/mL
AUC ([5]; Age (years) > 65–75): 156 µg·h/mL
AUC ([5]; Age (years) > 75–89): 180 µg·h/mL
AUC ([5]; Asian population: China (only)): 153 µg·h/mL
AUC ([5]; Asian population: Japan): 164 µg·h/mL
AUC ([5]; Baseline WBC count Missing): 147 µg·h/mL
AUC ([5]; Concomitant use of OAT1/OAT3 inhibitor(s): No): 142 µg·h/mL
AUC ([5]; Concomitant use of OAT1/OAT3 inhibitor(s): Yes): 150 µg·h/mL
AUC ([5]; Fever at baseline: Missing): 132 µg·h/mL
AUC ([5]; Fever at baseline: No): 146 µg·h/mL
AUC ([5]; Fever at baseline: Yes): 134 µg·h/mL
AUC ([5]; Obesity I (29.9 ≤ BMI < 34.9 kg/m^2)): 136 µg·h/mL
AUC ([5]; Obesity II (34.9 ≤ BMI < 39.9 kg/m^2)): 141 µg·h/mL
AUC ([5]; Obesity III (BMI ≥ 39.9 kg/m^2)): 115 µg·h/mL
AUC ([5]; Obesity: Missing): 172 µg·h/mL
AUC ([5]; Obesity: Normal): 144 µg·h/mL
AUC ([5]; Race: Asian (non‐Chinese; non‐Japanese)): 166 µg·h/mL
AUC ([5]; Race: Chinese and Taiwanese): 151 µg·h/mL
AUC ([5]; Race: Japanese): 164 µg·h/mL
AUC ([5]; Race: White/other): 135 µg·h/mL
Cmax ([5]; C max,ss geometric mean (CV), Age (years) 18–65): 12500 ng/mL
Cmax ([5]; C max,ss geometric mean (CV), Age (years) > 65–75): 13200 ng/mL
Cmax ([5]; C max,ss geometric mean (CV), Age (years) > 75–89): 14000 ng/mL
Cmax ([5]; C max,ss geometric mean (CV), Asian population: China (only)): 14900 ng/mL
Cmax ([5]; C max,ss geometric mean (CV), Asian population: Japan): 16100 ng/mL
Cmax ([5]; C max,ss geometric mean (CV), Asian population: Korea): 13000 ng/mL
Cmax ([5]; C max,ss geometric mean (CV), Concomitant use of OAT1/OAT3 inhibitor(s): No): 12800 ng/mL
Cmax ([5]; C max,ss geometric mean (CV), Concomitant use of OAT1/OAT3 inhibitor(s): Yes): 13700 ng/mL
Cmax ([5]; C max,ss geometric mean (CV), Fever at baseline: Missing): 11800 ng/mL
Cmax ([5]; C max,ss geometric mean (CV), Fever at baseline: No): 12900 ng/mL
Cmax ([5]; C max,ss geometric mean (CV), Fever at baseline: Yes): 12200 ng/mL
Cmax ([5]; C max,ss geometric mean (CV), Obesity I (29.9 ≤ BMI < 34.9 kg/m^2)): 12000 ng/mL
Cmax ([5]; C max,ss geometric mean (CV), Obesity II (34.9 ≤ BMI < 39.9 kg/m^2)): 13200 ng/mL
Cmax ([5]; C max,ss geometric mean (CV), Obesity III (BMI ≥ 39.9 kg/m^2)): 9700 ng/mL
Cmax ([5]; C max,ss geometric mean (CV), Obesity: Missing): 14200 ng/mL
Cmax ([5]; C max,ss geometric mean (CV), Obesity: Normal): 13000 ng/mL
Cmax ([5]; C max,ss geometric mean (CV), Race: Asian (non‐Chinese; non‐Japanese)): 14900 ng/mL
Cmax ([5]; C max,ss geometric mean (CV), Race: Chinese and Taiwanese): 14700 ng/mL
Cmax ([5]; C max,ss geometric mean (CV), Race: Japanese): 16100 ng/mL
Cmax ([5]; C max,ss geometric mean (CV), Race: White/other): 12000 ng/mL
Cmax ([5]; intravenous): 12700 ng/mL
AUC ([5]; intravenous, 187.5 mg, Day 3 CrCL 8–15 mL/min (750‐187.5 mg q24 h)): 86.3 µg·h/mL
Cmax ([5]; intravenous, 187.5 mg, C max,ss geometric mean (CV), Day 3 CrCL 8–15 mL/min (750‐187.5 mg q24 h)): 6300 ng/mL
AUC ([5]; intravenous, 500 mg, Day 3 CrCL > 150–180 mL/min (2000‐500 mg q8 h)): 103 µg·h/mL
Cmax ([5]; intravenous, 500 mg, C max,ss geometric mean (CV), Day 3 CrCL > 150–180 mL/min (2000‐500 mg q8 h)): 9900 ng/mL
AUC ([5]; intravenous, Asian population: Korea): 144 µg·h/mL
AUC ([5]; intravenous, Asian population: Taiwan): 115 µg·h/mL
AUC ([5]; intravenous, Asian population: Vietnam): 146 µg·h/mL
AUC ([5]; intravenous, Bacteremia at baseline: No): 141 µg·h/mL
AUC ([5]; intravenous, Bacteremia at baseline: Yes): 161 µg·h/mL
AUC ([5]; intravenous, Baseline APACHE II score > 10): 170 µg·h/mL
AUC ([5]; intravenous, Baseline APACHE II score Missing): 138 µg·h/mL
AUC ([5]; intravenous, Baseline APACHE II score ≤ 10): 131 µg·h/mL
AUC ([5]; intravenous, Baseline WBC count (cells/μL) > 12,000): 136 µg·h/mL
AUC ([5]; intravenous, Baseline WBC count (cells/μL) ≤ 12,000): 145 µg·h/mL
AUC ([5]; intravenous, Patient population: NP): 169 µg·h/mL
AUC ([5]; intravenous, Patient population: Non‐VAP): 183 µg·h/mL
AUC ([5]; intravenous, Patient population: VAP): 146 µg·h/mL
AUC ([5]; intravenous, Patient population: cIAI): 132 µg·h/mL
AUC ([5]; intravenous, Patient population: cUTI): 138 µg·h/mL
AUC ([5]; intravenous, SIRS at baseline: Missing): 129 µg·h/mL
AUC ([5]; intravenous, SIRS at baseline: No): 143 µg·h/mL
AUC ([5]; intravenous, SIRS at baseline: Yes): 142 µg·h/mL
Cmax ([5]; intravenous, C max,ss geometric mean (CV), Asian population: Taiwan): 10200 ng/mL
Cmax ([5]; intravenous, C max,ss geometric mean (CV), Asian population: Vietnam): 14600 ng/mL
Cmax ([5]; intravenous, C max,ss geometric mean (CV), Bacteremia at baseline: No): 12600 ng/mL
Cmax ([5]; intravenous, C max,ss geometric mean (CV), Bacteremia at baseline: Yes): 14200 ng/mL
Cmax ([5]; intravenous, C max,ss geometric mean (CV), Baseline APACHE II score > 10): 14300 ng/mL
Cmax ([5]; intravenous, C max,ss geometric mean (CV), Baseline APACHE II score Missing): 12100 ng/mL
Cmax ([5]; intravenous, C max,ss geometric mean (CV), Baseline WBC count (cells/μL) > 12,000): 12500 ng/mL
Cmax ([5]; intravenous, C max,ss geometric mean (CV), Baseline WBC count (cells/μL) ≤ 12,000): 12800 ng/mL
Cmax ([5]; intravenous, C max,ss geometric mean (CV), Patient population: NP): 14200 ng/mL
Cmax ([5]; intravenous, C max,ss geometric mean (CV), Patient population: Non‐VAP): 15500 ng/mL
Cmax ([5]; intravenous, C max,ss geometric mean (CV), Patient population: VAP): 12000 ng/mL
Cmax ([5]; intravenous, C max,ss geometric mean (CV), Patient population: cIAI): 12800 ng/mL
Cmax ([5]; intravenous, C max,ss geometric mean (CV), Patient population: cUTI): 12100 ng/mL
Cmax ([5]; intravenous, C max,ss geometric mean (CV), SIRS at baseline: Missing): 12100 ng/mL
Cmax ([5]; intravenous, C max,ss geometric mean (CV), SIRS at baseline: No): 12800 ng/mL
Cmax ([5]; intravenous, C max,ss geometric mean (CV), SIRS at baseline: Yes): 12600 ng/mL
difference in steady‐state exposure vs. healthy volunteers ([5]; most patient subgroups): ≤ 20%
lower C max,ss ([5]; patients with VAP vs non‐VAP patients): ~ 20%
lower V c ([6]; 10th percentile of body weight (51 kg) vs median weight (70 kg)): 29%
higher V c ([6]; 90th percentile of body weight (95 kg) vs median weight (70 kg)): 39%
decrease in CL ([6]; APACHE II score > 10): 19.7%
increase in CL for an increase of 100 mL/min in CrCL over 80 mL/min ([6]; CrCL ≥ 80 mL/min): 27.9%
clearance ([6]; CL, patients with ESRD, off dialysis): 1.13 mL/min
clearance ([6]; CL, patients with ESRD, on‐dialysis): 347 mL/min
clearance ([6]; θ1: CL, typical value): 170 mL/min
clearance ([6]; θ6: CL estimate for patients on dialysis): 347 mL/min
θ9: Population effect on V c (cIAI, phase II), V c*(1 + θ9) ([6]; in vivo): 1.92
θ11: Population effect on V c (cUTI), V c*(1 + θ11) ([6]; in vivo): 0.434
θ12: Population effect on V c (cIAI, phase III, NP), V c*(1 + θ11) ([6]; in vivo): 0.329
θ14: WT on V c (WT/70.0)^θ14 ([6]; in vivo): 1.08
θ 28: NPv on V c,V c*(1 + θ28) ([6]; in vivo): 0.175
increase in AUC [6, 8]: 9.5%
lower CL [6, 8]: 8.65%
higher V c ([6]; patients with NPv vs non‐NPv patients): 17.5%
higher V c ([6]; patients with cUTI vs healthy subjects): 43.4%
higher V c ([6]; phase III patients with cIAI and patients with NP vs healthy subjects): 32.9%
θ2: V c ([6]; typical value): 11.1 L
θ3: Q ([6]; typical value): 5.44 L/h
θ4: V p ([6]; typical value): 6.91 L
free plasma concentrations as % of total plasma concentrations [7]: 92%

From paper PMC6440567 (Clinical and Translational Science, 2018)
